Data on one molecule can be found in ChEMBL document CHEMBL1914426, “Phospshoinositide 3-kinase (PI3K)/mammalian target of rapamycin (mTOR) dual inhibitors: discovery and structure-activity relationships of a series of quinoline and quinoxaline derivatives” (J Med Chem, 2011).

A short description of data set [1]: Oral bioavailability in Sprague-Dawley rat at 1 mg/kg. Conditions: in vivo. It counts as ADME, organism-based.
Data set [2] in a line: AUC in Sprague-Dawley rat at 1 mg/kg, po. In kind it is ADME, organism-based. Also noted: dose 1 mg/kg, route oral. Particulars: plasma.
Data set [3] is filed under the species Rattus norvegicus. Conditions: in vivo, iv, 1 mg/kg.
Description: Clearance in Sprague-Dawley rat at 1 mg/kg, iv
For data set [4], the species on record is Rattus norvegicus. Particulars: in vivo, iv, 1 mg/kg. The source holds these as a separate data set.
Description: Volume of distribution at steady-state in Sprague-Dawley rat at 1 mg/kg, iv
Data set [5] is filed under the species Rattus norvegicus. Particulars: in vivo, iv, 1 mg/kg. The source holds these as a separate data set.
Description: Mean residence time in Sprague-Dawley rat at 1 mg/kg, iv
Data set [6] is filed under the species Rattus norvegicus. Conditions: in vivo, iv, 1 mg/kg. This is another data set of the same source.
Description: Hepatic blood flow in Sprague-Dawley rat 1 mg/kg, iv
The nature of data set [7]: in vitro. Conditions: human, liver microsomes. Background: Liver microsomes are vesicles of endoplasmic reticulum, rich in cytochrome P450 enzymes.
Description: Clearance in human liver microsomes assessed as compound remaining at 1 uM after 30 mins
Data set [8] in a line: in vitro. Particulars: rat, liver microsomes.
Description: Clearance in rat liver microsomes assessed as compound remaining at 1 uM after 30 mins

Take `O=S(=O)(Nc1cc(-c2ccc3ncc(NCCN4CCCCC4)nc3c2)cnc1Cl)c1ccc(F)cc1`: in data set [1], the bioavailability (commonly dose-corrected exposure relative to a reference, in per cent) is 16%. Moreover, the AUC (as a rule, the area under the concentration-time curve, a measure of exposure) in data set [2] worked out at 271 ng·h/mL. The molecule further returned a CL in the data set listed under Rattus norvegicus [3] of 9.83 mL/min/kg. For the same molecule, in the data set listed under Rattus norvegicus [4], the Vdss (usually the apparent volume that relates the amount in the body to the concentration in plasma or blood) was determined as 0.19 L/kg. The MRT – broadly, the average time that molecules of a dose stay in the body – in the data set listed under Rattus norvegicus [5] was 2.1 h. Also, the QH in the data set listed under Rattus norvegicus [6] amounted to 0.6%. Besides, the microsomal CLint – broadly, the rate of metabolic loss divided by the concentration – at 0.5 h, 1 µM in the data set “in vitro [7]” was 25 µL/min/mg; in the data set “in vitro [8]”, less than 14 µL/min/mg.
